Experimental data from US12371454B2, “Cyclic peptide compound having Kras inhibitory action” (priority 2019, dated 2025).
Starred links: 1 amine or outer side, 2 acyl side, 3 side chain; linkers in the order of their positions; H or OH if unused. Positions of bridges follow the written chain, without caps; N, C: chain ends. Non-standard residues stand in square brackets, D forms with d. Residues, ends and D or L forms follow the SMILES beside them. *: point of attachment. hPhe(3-Cl-4-CF3) = N[C@@H](CCc1ccc(C(F)(F)F)c(Cl)c1)C(=O)O; X39 = COc1ccc(C[C@@H](C(=O)[*:2])N(C)[*:1])cn1; NMePhe(4-Me) = CN[C@@H](Cc1ccc(C)cc1)C(=O)O; NMeGly(cPent) = CN[C@H](C(=O)O)C1CCCC1; Phe(3-I) = N[C@@H](Cc1cccc(I)c1)C(=O)O; NMeY = CN[C@@H](Cc1ccc(O)cc1)C(=O)O; NMeCha = CN[C@@H](CC1CCCCC1)C(=O)O; Azetidine(3,3-F2) = FC1(F)CN(*)C1; NMehLeu = CN[C@@H](CCC(C)C)C(=O)O; NMeChg = CN[C@H](C(=O)O)C1CCCCC1; NMeF = CN[C@@H](Cc1ccccc1)C(=O)O; NMeI = CC[C@H](C)[C@H](NC)C(=O)O; NMeβAla = CN(CCC(=O)[*:2])[*:1]; NMeD = CN[C@@H](CC(=O)O)C(=O)O; NMeL = CN[C@@H](CC(C)C)C(=O)O; d(β3hP) = O=C(O)C[C@H]1CCCN1; NMeV = CN[C@H](C(=O)O)C(C)C; NMeS = CN[C@@H](CO)C(=O)O; NMeA = CN[C@@H](C)C(=O)O; Piperidide = C1CCN(*)CC1; Pyrrolidide = C1CCN(*)C1; Ac5c = NC1(C(=O)O)CCCC1; Aze = O=C(O)[C@@H]1CCN1; CH2CMe2OH = CC(C)(O)C*; Sar = CNCC(=O)O; Propyl = CCC*

The molecules below were run against T1, Kras and SOS1 (biotin-tagged human Kras loaded with GDP, His-tagged human SOS1) (Homo sapiens, UniProt P01116, G12D) (assay: Protein-protein interaction inhibition between Kras and SOS1 (KrasGl2D-SOS PPI) using AlphaScreen). Conditions: AlphaScreen; biotin-tagged human Kras loaded with GDP, His-tagged human SOS1; read-out: KRAS G12D-SOS PPI IC50.
T1 construct: made in house; host or cells: E. coli (stated for Kras only)
T1 sequence (P01116 1-188 isoform P01116-2 G12D): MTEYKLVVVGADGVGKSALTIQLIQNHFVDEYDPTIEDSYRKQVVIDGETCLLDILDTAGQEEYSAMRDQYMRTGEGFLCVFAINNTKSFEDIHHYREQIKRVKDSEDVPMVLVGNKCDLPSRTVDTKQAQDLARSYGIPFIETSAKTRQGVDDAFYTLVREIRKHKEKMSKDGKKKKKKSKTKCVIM
Type: binding
Outline: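 Read-out is acceptor-bead light at 520-620 nm, arising when 680 nm-irradiated nickel donor beads pass singlet oxygen to streptavidin acceptors. The bead pair links His-tagged SOS1 with biotin-tagged, GDP-bound Kras from E. coli.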
CC(C)C[C@@H]1NC(=O)[C@H](CC(C)C)N(C)C(=O)C[C@@H](C(=O)N2CCCCC2)N(C)C(=O)[C@H](C(C)C)N(C)C(=O)C2(CCCC2)NC(=O)[C@@H]2CCCN2C(=O)[C@H](CCc2ccc(C(F)(F)F)c(Cl)c2)NC(=O)CN(C)C(=O)[C@H](CC2CCCCC2)N(C)C(=O)[C@@H]2CCN2C(=O)[C@H](C)N(C)C1=O [Compound 1754] ([NMeL]L[NMeA][Aze][NMeCha][Sar][hPhe(3-Cl-4-CF3)]P[Ac5c][NMeV][NMeD]-Piperidide; lactam N-11) gave an IC50 of 67 nM. CC[C@H](C)[C@@H]1NC(=O)[C@H](C)N(C)C(=O)C[C@@H](C(=O)N2CCCC2)N(C)C(=O)[C@H](CC(C)C)NC(=O)[C@H](Cc2ccccc2)N(C)C(=O)[C@H](C)NC(=O)[C@H](Cc2cccc(I)c2)NC(=O)CN(C)C(=O)[C@H](Cc2ccc(OC)cc2)N(C)C(=O)[C@@H]2CCN2C(=O)[C@H](C)N(C)C1=O [Compound 604] ([NMeA]I[NMeA][Aze][NMeY](Me)[Sar][Phe(3-I)]A[NMeF]L[NMeD]-Pyrrolidide; lactam N-11) gave an IC50 of 16 nM. CC[C@H](C)[C@@H]1NC(=O)[C@H](CC(C)C)N(C)C(=O)C[C@@H](C(=O)N(C)C)N(C)C(=O)[C@H]([C@@H](C)CC)N(C)C(=O)[C@H](C)NC(=O)[C@H](C)N(C)C(=O)[C@H](CCc2ccc(C(F)(F)F)c(Cl)c2)NC(=O)CN(C)C(=O)[C@H](Cc2ccc(C)cc2)N(C)C(=O)[C@@H]2CCN2C(=O)[C@H](C)N(C)C1=O [Compound 715] ([NMeL]I[NMeA][Aze][NMePhe(4-Me)][Sar][hPhe(3-Cl-4-CF3)][NMeA]A[NMeI][NMeD]-NMe2; lactam N-11) was tested, and the IC50 was 6.1 nM. CC[C@H](C)[C@@H]1NC(=O)[C@H](CC(C)C)N(C)C(=O)C[C@@H](C(=O)N2CCCCC2)N(C)C(=O)[C@H](C2CCCCC2)N(C)C(=O)C2(CCCC2)NC(=O)[C@H](Cc2ccc(OC)nc2)N(C)C(=O)[C@H](CCc2ccc(C(F)(F)F)c(Cl)c2)NC(=O)CN(C)C(=O)[C@H](CC2CCCCC2)N(C)C(=O)[C@@H]2CCN2C(=O)CN(C)C1=O [Compound 614] ([NMeL]I[Sar][Aze][NMeCha][Sar][hPhe(3-Cl-4-CF3)][X39][Ac5c][NMeChg][NMeD]-Piperidide; lactam N-11) showed an IC50 of 24 nM. In the case of CCCOC[C@H]1C(=O)N(C)[C@H](C(=O)N2CCCCC2)CC(=O)N(C)[C@@H](CC(C)C)C(=O)N[C@@H]([C@@H](C)CC)C(=O)N(C)[C@@H](C)C(=O)N2CC[C@H]2C(=O)N(C)[C@@H](CC2CCCCC2)C(=O)N(C)CC(=O)N[C@@H](CCc2ccc(C(F)(F)F)c(Cl)c2)C(=O)N2CCC[C@H]2C(=O)NC2(CCCC2)C(=O)N1C [Compound 1855] ([NMeL]I[NMeA][Aze][NMeCha][Sar][hPhe(3-Cl-4-CF3)]P[Ac5c][NMeS](Propyl)[NMeD]-Piperidide; lactam N-11), the IC50 is reported as 340 nM. In the case of CC[C@H](C)[C@@H]1NC(=O)[C@H](CCC(C)C)N(C)C(=O)C[C@@H](C(=O)N(C)C)N(C)C(=O)[C@H](C2CCCC2)N(C)C(=O)C2(CCCC2)NC(=O)[C@@H]2CCCN2C(=O)[C@H](CCc2ccc(C(F)(F)F)c(Cl)c2)NC(=O)CN(C)C(=O)[C@H](Cc2ccc(C)cc2)N(C)C(=O)[C@@H]2CCN2C(=O)[C@H](C)NC1=O [Compound 303, (5S,8S,11S,15S,18S,23aS,29S,35S,37aS)-8-((S)-sec-butyl)-29-(3-chloro-4-(trifluoromethyl)phenethyl)-18-cyclopentyl-11-isopentyl-N,N,5,12,16,19,33,36-octamethyl-35-(4-methylbenzyl)-4,7,10,13,17,20,23,28,31,34,37-undecaoxotetratriacontahydro-2H,4H-spiro[azeto[2,1-u]pyrrolo[2,1-i][1,4,7,10,13,16,19,22,25,28,31]undecaazacyclotetratriacontine-21,1′-cyclopentane]-15-carboxamide] ([NMehLeu]IA[Aze][NMePhe(4-Me)][Sar][hPhe(3-Cl-4-CF3)]P[Ac5c][NMeGly(cPent)][NMeD]-NMe2; lactam N-11), the IC50 is reported as 0.68 nM. In the case of CCCOC[C@@H]1NC(=O)[C@H](CC(=O)N2CC(F)(F)C2)N(C)C(=O)[C@H](CCc2ccc(C(F)(F)F)c(Cl)c2)NC(=O)CN(C)C(=O)[C@H](CC2CCCCC2)N(C)C(=O)CN(C)C(=O)CN(C)C(=O)[C@H]([C@@H](C)CC)NC(=O)[C@H](C)N(C)C(=O)C[C@@H](C(=O)N2CCCCC2)N(C)C(=O)[C@H](C(C)C)N(C)C1=O [Compound 129] ([NMeA]I[Sar][Sar][NMeCha][Sar][hPhe(3-Cl-4-CF3)][NMeD](Azetidine(3,3-F2))S(Propyl)[NMeV][NMeD]-Piperidide; lactam N-11), the IC50 is reported as 11 nM. CC[C@H](C)[C@@H]1NC(=O)CCN(C)C(=O)[C@H](COCC(C)(C)O)N(C)C(=O)[C@H](C2CCCC2)N(C)C(=O)C2(CCCC2)NC(=O)[C@@H]2CCCN2C(=O)[C@H](CCc2ccc(C(F)(F)F)c(Cl)c2)NC(=O)CN(C)C(=O)[C@H](CC2CCCCC2)N(C)C(=O)CN(C)C(=O)CN(C)C1=O [Compound 244] (cyclo([Ac5c][NMeGly(cPent)][NMeS](CH2CMe2OH)[NMeβAla]I[Sar][Sar][NMeCha][Sar][hPhe(3-Cl-4-CF3)]P)) gave an IC50 of 140 nM. CC[C@H](C)[C@@H]1NC(=O)[C@H](CC(C)C)N(C)C(=O)C[C@H]2CCCN2C(=O)[C@H]([C@@H](C)CC)N(C)C(=O)C2(CCCC2)NC(=O)[C@@H]2CCCN2C(=O)[C@H](CCc2ccc(C(F)(F)F)c(Cl)c2)NC(=O)CN(C)C(=O)[C@H](Cc2ccc(C)cc2)N(C)C(=O)[C@@H]2CCN2C(=O)[C@H](C)N(C)C1=O [Compound 2003] (cyclo([Ac5c][NMeI][d(β3hP)][NMeL]I[NMeA][Aze][NMePhe(4-Me)][Sar][hPhe(3-Cl-4-CF3)]P)) showed an IC50 of 8.6 nM.
